Results from ChEMBL document CHEMBL4715821, “Discovery of 4-ethoxy-7H-pyrrolo[2,3-d]pyrimidin-2-amines as potent, selective and orally bioavailable LRRK2 inhibitors” (Bioorg Med Chem Lett, 2018).

Columns and labels:
[1] = biological target: Mitogen-activated protein kinase 13 (Homo sapiens) (UniProt O15264); experiment: Inhibition of wild-type human full length p38-delta (M1 to L365 residues) expressed in bacterial expression system assessed as residual activity at 1 uM by Kinomescan method relative to control
[2] = biological target: Serine/threonine-protein kinase 25 (Homo sapiens) (UniProt O00506); experiment: Inhibition of wild-type human partial length YSK1 (V14 to H295 residues) expressed in bacterial expression system assessed as residual activity at 1 uM by Kinomescan method relative to control
[3] = biological target: Insulin receptor-related protein (Homo sapiens) (UniProt P14616); experiment: Inhibition of wild-type human partial length INSRR (R950 to E1278 residues) expressed in bacterial expression system assessed as residual activity at 1 uM by Kinomescan method relative to control
[4] = biological target: Serine/threonine-protein kinase 4 (Homo sapiens) (UniProt Q13043); experiment: Inhibition of wild-type human full length MST1 (M1 to F487 residues) expressed in bacterial expression system assessed as residual activity at 1 uM by Kinomescan method relative to control
[5] = biological target: MAP kinase-interacting serine/threonine-protein kinase 2 (Homo sapiens) (UniProt Q9HBH9); experiment: Inhibition of MNK2 (unknown origin) assessed as residual activity at 1 uM by Kinomescan method relative to control
[6] = biological target: Homeodomain-interacting protein kinase 3 (Homo sapiens) (UniProt Q9H422); experiment: Inhibition of wild-type human partial length HIPK3 (M153 to N562 residues) expressed in mammalian expression system assessed as residual activity at 1 uM by Kinomescan method relative to control
[7] = biological target: Serine/threonine-protein kinase Nek1 (Homo sapiens) (UniProt Q96PY6); experiment: Inhibition of wild-type human partial length NEK1 (M1 to K278 residues) expressed in bacterial expression system assessed as residual activity at 1 uM by Kinomescan method relative to control
[8] = biological target: Death-associated protein kinase 2 (Homo sapiens) (UniProt Q9UIK4); experiment: Inhibition of wild type human full length DAPK2 (M1 to S370 residues) expressed in bacterial expression system assessed as residual activity at 1 uM by Kinomescan method relative to control
[9] = biological target: Platelet-derived growth factor receptor beta (Homo sapiens) (UniProt P09619); experiment: Inhibition of wild-type human partial length PDGFRB (V582 to Y1009 residues) expressed in bacterial expression system assessed as residual activity at 1 uM by Kinomescan method relative to control
[10] = biological target: Testis-specific serine/threonine-protein kinase 6 (Homo sapiens) (UniProt Q9BXA6); experiment: Inhibition of SSTK (unknown origin) assessed as residual activity at 1 uM by Kinomescan method relative to control
[11] = biological target: Activin receptor type-1 (Homo sapiens) (UniProt Q04771); experiment: Inhibition of human wild type partial length ACVR1 (C188 to C509 residues) expressed in bacterial expression system assessed as residual activity at 1 uM by Kinomescan method relative to control
[12] = biological target: Ephrin type-A receptor 5 (Homo sapiens) (UniProt P54756); experiment: Inhibition of wild-type human partial length EPHA5 (T627 to V930 residues) expressed in bacterial expression system assessed as residual activity at 1 uM by Kinomescan method relative to control
[13] = biological target: Wee1-like protein kinase (Homo sapiens) (UniProt P30291); experiment: Inhibition of wild-type human partial length WEE1 (M291 to K575 residues) expressed in bacterial expression system assessed as residual activity at 1 uM by Kinomescan method relative to control
[14] = biological target: Cyclin-dependent kinase 5/CDK5 activator 1 (Homo sapiens) (UniProt Q00535+Q15078); experiment: Inhibition of wild-type human full length CDK5 (M1 to P292 residues)/p25 expressed in bacterial expression system assessed as residual activity at 1 uM by Kinomescan method relative to control
[15] = biological target: Serine/threonine-protein kinase Nek2 (Homo sapiens) (UniProt P51955); experiment: Inhibition of wild-type human partial length NEK2 (M1 to K309 residues) expressed in bacterial expression system assessed as residual activity at 1 uM by Kinomescan method relative to control
[16] = biological target: Serine/threonine-protein kinase DCLK2 (Homo sapiens) (UniProt Q8N568); experiment: Inhibition of wild-type human partial length DCAMKL2 (K273 to V664 residues) expressed in bacterial expression system assessed as residual activity at 1 uM by Kinomescan method relative to control
[17] = biological target: Serine/threonine-protein kinase 32C (Homo sapiens) (UniProt Q86UX6); experiment: Inhibition of wild-type human partial length YANK3 (M68 to G486 residues) expressed in bacterial expression system assessed as residual activity at 1 uM by Kinomescan method relative to control
[18] = biological target: Death-associated protein kinase 3 (Homo sapiens) (UniProt O43293); experiment: Inhibition of wild-type human partial length DAPK3 (M1 to A277 residues) expressed in bacterial expression system assessed as residual activity at 1 uM by Kinomescan method relative to control
[19] = biological target: High affinity nerve growth factor receptor (Homo sapiens) (UniProt P04629); experiment: Inhibition of wild-type human partial length TRKA (G475 to G790 residues) expressed in mammalian expression system assessed as residual activity at 1 uM by Kinomescan method relative to control
[20] = biological target: Protein kinase C alpha type (Homo sapiens) (UniProt P17252); experiment: Inhibition of PKCalpha (unknown origin) assessed as residual activity at 1 uM by Kinomescan method relative to control
[21] = biological target: Protein kinase C theta type (Homo sapiens) (UniProt Q04759); experiment: Inhibition of PKCtheta (unknown origin) assessed as residual activity at 1 uM by Kinomescan method relative to control
[22] = biological target: Ephrin type-A receptor 3 (Homo sapiens) (UniProt P29320); experiment: Inhibition of wild-type human partial length EPHA3 (D604 to K889 residues) expressed in bacterial expression system assessed as residual activity at 1 uM by Kinomescan method relative to control
[23] = biological target: TGF-beta receptor type-1 (Homo sapiens) (UniProt P36897); experiment: Inhibition of wild-type human partial length TGFBR1 (D179 to M503 residues) expressed in bacterial expression system assessed as residual activity at 1 uM by Kinomescan method relative to control
[24] = biological target: STE20/SPS1-related proline-alanine-rich protein kinase (Homo sapiens) (UniProt Q9UEW8); experiment: Inhibition of wild-type human partial length STK39 (P43 to I357 residues) expressed in mammalian expression system assessed as residual activity at 1 uM by Kinomescan method relative to control
[25] = In vivo inhibition of LRRK2 in Han-Wistar rat assessed as reduction in Ser935 phosphorylation in brain at 10 mg/kg, po by Western blot analysis; assay type: functional; design: scale not given: the % may be the effect or the level left
[26] = biological target: Mast/stem cell growth factor receptor Kit (Homo sapiens) (UniProt P10721); experiment: Inhibition of c-kit (unknown origin) assessed as residual activity at 1 uM relative to control
[27] = biological target: Dual specificity tyrosine-phosphorylation-regulated kinase 2 (Homo sapiens) (UniProt Q92630); experiment: Inhibition of wild-type human full length DYRK2 (M1 to S528 residues) expressed in mammalian expression system assessed as residual activity at 1 uM by Kinomescan method relative to control

Sequence of Serine/threonine-protein kinase Nek1 (Homo sapiens) (Q96PY6 whole entry, the tested form may be a part): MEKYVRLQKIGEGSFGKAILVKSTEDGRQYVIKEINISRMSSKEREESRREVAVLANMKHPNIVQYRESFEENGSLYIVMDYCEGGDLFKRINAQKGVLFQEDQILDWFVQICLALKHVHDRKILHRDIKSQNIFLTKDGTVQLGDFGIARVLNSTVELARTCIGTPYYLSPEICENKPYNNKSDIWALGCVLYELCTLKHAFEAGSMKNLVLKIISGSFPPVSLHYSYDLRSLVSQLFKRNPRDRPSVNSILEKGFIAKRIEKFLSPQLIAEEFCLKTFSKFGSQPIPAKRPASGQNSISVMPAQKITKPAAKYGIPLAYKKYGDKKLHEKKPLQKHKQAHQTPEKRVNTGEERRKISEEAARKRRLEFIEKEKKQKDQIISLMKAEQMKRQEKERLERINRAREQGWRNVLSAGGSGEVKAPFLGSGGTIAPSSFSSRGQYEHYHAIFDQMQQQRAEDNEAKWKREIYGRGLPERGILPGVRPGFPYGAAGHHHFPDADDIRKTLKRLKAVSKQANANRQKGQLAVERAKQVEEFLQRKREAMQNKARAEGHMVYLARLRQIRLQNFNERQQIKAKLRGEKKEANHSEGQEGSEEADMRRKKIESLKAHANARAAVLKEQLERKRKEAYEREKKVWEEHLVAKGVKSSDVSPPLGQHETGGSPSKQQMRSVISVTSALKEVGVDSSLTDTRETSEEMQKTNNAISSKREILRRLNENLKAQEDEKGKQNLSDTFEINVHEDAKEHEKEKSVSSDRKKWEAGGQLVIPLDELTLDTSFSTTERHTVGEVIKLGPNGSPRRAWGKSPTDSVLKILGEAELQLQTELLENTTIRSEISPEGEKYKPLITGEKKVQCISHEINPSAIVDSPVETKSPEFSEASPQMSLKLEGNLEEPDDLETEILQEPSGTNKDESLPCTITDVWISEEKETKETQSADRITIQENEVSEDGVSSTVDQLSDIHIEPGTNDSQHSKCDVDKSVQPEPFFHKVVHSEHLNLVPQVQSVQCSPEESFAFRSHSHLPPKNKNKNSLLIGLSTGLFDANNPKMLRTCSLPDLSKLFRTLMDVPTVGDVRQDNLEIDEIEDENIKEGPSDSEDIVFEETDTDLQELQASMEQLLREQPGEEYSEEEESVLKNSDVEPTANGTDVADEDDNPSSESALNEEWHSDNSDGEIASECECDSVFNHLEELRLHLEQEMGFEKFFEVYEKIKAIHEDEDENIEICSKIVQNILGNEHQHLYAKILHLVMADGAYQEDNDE
Sequence of TGF-beta receptor type-1 (Homo sapiens) (P36897 whole entry, the tested form may be a part): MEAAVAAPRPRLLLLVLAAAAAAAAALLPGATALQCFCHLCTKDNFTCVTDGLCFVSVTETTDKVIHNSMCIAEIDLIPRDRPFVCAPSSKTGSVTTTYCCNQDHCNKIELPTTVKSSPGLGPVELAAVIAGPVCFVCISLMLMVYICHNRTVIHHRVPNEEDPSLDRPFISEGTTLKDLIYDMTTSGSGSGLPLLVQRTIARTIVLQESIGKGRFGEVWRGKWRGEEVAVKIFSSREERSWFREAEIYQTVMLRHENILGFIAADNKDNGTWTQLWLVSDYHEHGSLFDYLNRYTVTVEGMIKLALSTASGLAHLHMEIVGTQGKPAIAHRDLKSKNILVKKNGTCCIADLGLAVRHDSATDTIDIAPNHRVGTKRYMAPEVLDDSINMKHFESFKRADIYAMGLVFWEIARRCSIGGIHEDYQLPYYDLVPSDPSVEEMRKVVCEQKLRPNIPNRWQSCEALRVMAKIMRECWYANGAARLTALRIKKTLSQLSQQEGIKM
Sequence of Ephrin type-A receptor 5 (Homo sapiens) (P54756 whole entry, the tested form may be a part): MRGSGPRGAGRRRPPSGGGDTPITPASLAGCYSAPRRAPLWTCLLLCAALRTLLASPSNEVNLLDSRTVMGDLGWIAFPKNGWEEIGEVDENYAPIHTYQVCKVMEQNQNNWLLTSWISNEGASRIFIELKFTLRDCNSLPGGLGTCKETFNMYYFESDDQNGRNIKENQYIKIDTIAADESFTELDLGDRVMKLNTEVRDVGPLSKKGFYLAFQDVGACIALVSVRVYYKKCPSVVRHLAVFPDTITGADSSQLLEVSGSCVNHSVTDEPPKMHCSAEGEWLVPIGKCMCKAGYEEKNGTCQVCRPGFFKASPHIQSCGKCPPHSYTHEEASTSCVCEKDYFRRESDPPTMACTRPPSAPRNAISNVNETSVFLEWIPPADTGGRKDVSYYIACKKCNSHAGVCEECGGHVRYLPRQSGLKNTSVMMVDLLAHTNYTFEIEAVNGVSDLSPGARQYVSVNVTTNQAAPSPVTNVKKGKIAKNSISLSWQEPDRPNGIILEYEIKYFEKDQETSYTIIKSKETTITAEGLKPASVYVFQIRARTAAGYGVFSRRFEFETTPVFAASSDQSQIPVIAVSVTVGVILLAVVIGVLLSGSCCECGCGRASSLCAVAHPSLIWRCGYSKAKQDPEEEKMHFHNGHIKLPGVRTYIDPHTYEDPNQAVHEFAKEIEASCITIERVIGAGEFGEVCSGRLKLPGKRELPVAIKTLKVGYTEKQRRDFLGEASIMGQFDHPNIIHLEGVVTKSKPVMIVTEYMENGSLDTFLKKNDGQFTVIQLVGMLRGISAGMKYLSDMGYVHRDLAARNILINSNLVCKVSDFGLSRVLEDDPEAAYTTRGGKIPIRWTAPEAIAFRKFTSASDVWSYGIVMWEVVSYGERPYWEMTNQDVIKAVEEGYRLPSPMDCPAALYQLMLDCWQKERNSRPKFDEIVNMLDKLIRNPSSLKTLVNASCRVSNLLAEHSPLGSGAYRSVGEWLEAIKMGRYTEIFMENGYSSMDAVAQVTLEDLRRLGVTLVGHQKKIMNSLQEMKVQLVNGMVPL
Sequence of Protein kinase C theta type (Homo sapiens) (Q04759 whole entry, looked up, the tested form may be a part): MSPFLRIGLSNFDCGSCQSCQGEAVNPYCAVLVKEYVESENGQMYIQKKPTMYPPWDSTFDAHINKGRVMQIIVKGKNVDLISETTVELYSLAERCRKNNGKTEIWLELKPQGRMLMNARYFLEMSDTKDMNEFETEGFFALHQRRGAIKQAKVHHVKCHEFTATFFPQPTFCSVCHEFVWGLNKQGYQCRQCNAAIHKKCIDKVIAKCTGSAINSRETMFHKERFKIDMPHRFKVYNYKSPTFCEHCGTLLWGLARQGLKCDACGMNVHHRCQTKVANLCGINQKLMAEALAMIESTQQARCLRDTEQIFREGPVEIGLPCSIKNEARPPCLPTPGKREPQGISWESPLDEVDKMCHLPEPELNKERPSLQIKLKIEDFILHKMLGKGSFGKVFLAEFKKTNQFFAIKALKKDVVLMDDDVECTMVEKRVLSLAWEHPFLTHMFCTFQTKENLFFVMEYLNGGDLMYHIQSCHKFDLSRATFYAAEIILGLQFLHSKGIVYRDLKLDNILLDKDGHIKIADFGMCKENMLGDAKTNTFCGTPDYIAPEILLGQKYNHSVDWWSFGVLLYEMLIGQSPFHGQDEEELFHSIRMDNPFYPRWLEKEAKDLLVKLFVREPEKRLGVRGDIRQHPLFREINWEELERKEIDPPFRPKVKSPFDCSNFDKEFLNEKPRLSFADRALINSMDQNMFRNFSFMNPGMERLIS
Sequence of Insulin receptor-related protein (Homo sapiens) (P14616 27-742 limits assumed): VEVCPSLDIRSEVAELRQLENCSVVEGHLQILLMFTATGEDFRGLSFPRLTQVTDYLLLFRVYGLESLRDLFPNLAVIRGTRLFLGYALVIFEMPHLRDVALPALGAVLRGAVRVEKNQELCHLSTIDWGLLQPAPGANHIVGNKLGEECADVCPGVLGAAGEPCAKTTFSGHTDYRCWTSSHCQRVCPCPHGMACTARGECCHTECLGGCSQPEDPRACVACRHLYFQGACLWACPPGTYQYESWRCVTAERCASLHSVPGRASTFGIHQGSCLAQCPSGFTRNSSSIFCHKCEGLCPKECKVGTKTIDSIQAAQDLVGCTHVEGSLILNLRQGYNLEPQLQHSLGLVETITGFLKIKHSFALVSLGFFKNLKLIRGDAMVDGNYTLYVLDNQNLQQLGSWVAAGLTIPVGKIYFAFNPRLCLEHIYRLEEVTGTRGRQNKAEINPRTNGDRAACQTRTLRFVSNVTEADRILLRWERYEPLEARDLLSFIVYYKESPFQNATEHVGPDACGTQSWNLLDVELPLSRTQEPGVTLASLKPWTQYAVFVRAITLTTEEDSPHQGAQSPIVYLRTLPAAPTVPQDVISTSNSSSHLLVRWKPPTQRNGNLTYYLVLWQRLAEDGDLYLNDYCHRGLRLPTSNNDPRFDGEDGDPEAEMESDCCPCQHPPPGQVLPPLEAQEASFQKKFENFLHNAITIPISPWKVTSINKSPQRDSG
Sequence of Insulin receptor-related protein (Homo sapiens) (P14616 747-1297 limits assumed): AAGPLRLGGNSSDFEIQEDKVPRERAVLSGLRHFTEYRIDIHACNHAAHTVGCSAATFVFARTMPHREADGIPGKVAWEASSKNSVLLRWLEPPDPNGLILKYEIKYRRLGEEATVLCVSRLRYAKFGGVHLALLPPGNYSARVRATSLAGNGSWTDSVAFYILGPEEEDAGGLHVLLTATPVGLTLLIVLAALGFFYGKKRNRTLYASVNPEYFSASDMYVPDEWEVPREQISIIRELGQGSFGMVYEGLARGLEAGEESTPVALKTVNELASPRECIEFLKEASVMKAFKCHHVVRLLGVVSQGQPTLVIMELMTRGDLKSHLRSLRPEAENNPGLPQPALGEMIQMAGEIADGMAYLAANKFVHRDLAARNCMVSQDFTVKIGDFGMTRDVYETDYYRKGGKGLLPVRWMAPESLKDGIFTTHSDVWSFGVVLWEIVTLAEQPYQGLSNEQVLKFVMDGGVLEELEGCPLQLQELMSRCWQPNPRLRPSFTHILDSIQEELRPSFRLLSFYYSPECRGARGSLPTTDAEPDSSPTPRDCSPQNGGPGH
Sequence of Testis-specific serine/threonine-protein kinase 6 (Homo sapiens) (Q9BXA6 whole entry, the tested form may be a part): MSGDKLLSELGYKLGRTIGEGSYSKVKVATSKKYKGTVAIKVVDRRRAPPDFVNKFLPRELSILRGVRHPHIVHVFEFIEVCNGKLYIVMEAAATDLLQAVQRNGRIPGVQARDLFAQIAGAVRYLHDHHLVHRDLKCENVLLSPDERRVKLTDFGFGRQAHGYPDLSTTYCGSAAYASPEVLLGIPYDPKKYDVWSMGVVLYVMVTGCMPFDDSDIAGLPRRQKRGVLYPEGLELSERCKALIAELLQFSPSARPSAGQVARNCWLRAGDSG

For CCOc1nc(Nc2ccc(C(=O)N3CCOCC3)cc2OC)nc2[nH]ccc12, the Activity [1] was 109%, the Activity [2] was 95.4% and the Activity [3] was 2.52%. The Activity [4] was 99.8%, the Activity [5] was 102% and the Activity [6] was 98%. The Activity [7] was 90.8%, the Activity [8] was 137% and the Activity [9] was 90.9%. It also gave an Activity [10] of 83.3%, an Activity [11] of 108% and an Activity [12] of 103%. It also gave an Activity [13] of 98.3%, an Activity [14] of 85.8% and an Activity [15] of 96.1%. It also gave an Activity [16] of 93.8%, an Activity [17] of 107% and an Activity [18] of 66.9%. It also gave an Activity [19] of 105%, an Activity [20] of 95.5% and an Activity [21] of 83.7%. The Activity [22] was 99.6%, the Activity [23] was 96.6% and the Activity [24] was 97.5%. For the same compound, the Activity [25] was 20%, the Activity [26] was 98.6% and the Activity [27] was 81.3%.
